ChEMBL document CHEMBL5096183, “Contemporary advances of cyclic molecules proposed for inflammation” (Eur J Med Chem, 2021)

Key:
Rattus norvegicus [1] = test: Antiulcer activity against ulceration induced albino Wistar rat assessed as ulcerogenic index pretreated daily at 25 mg/kg for 4 days followed by 24 hrs fasting prior to pylorus ligation measured after 4 hrs; type: functional; conditions: time 124 hrs
Mus musculus [2] = test: Anti-inflammatory activity against Carrageenan-induced paw edema in Swiss albino mouse assessed as change in paw volume at 10 mg/kg, PO measured after 6 hrs by plethysmometric analysis relative to control; type: functional
Erythrocyte = test: Anti-inflammatory against heat induced human red blood cells assessed as inhibition of heat induced hemolysis by measuring membrane stabilization for at 100 ug/ml incubated for 30 mins relative to control; type: functional; conditions: 0.5 h
Homo sapiens = species on record: Homo sapiens; test: Inhibition of proteinase (unknown origin) at 100 ug/ml using casein as substrate preincubated for 5 mins followed by addition of substrate for 20 mins relative to control; conditions: dose 100.0 µg/ml
Rattus norvegicus [3] = test: Anti-inflammatory activity against Cotton pellets induced granuloma in Albino rat at 20 mg/kg, po administered for 7 days measured on day 8 by measuring pellet weight relative to control; type: functional; conditions: time 8 day
Rattus norvegicus [4] = test: Acute anti-inflammatory activity against carrageenan induced paw edema in Albino rat at 20 mg/kg, po pretreated for 30 mins followed by carrageenan addition measured every hour for 3 hrs by plethysmography method relative to control; type: functional; conditions: time 3.5 hrs
Mus musculus [5] = test: Analgesic activity in albino […] mouse assessed as increase in reaction on paw licking at 100 mg/kg, po pretreated for 1 hrs followed by hot plate treatment measured after 90 mins by analgesiometer based analysis relative to control; type: functional; conditions: time 2.5 hrs
Rattus norvegicus [6] = test: Anti-inflammatory activity against carrageenan-induced paw edema in Wistar albino rat model assessed as inhibition of paw edema at 20 mg/kg, PO relative to control; type: functional
[7] = Inhibition of mouse full-length GST-tagged BRAF V600E mutant incubated for 1 hrs
[8] = molecular target: Epidermal growth factor receptor (Homo sapiens, UniProt P00533); test: Inhibition of recombinant EGFR (unknown origin) expressed in baculovirus incubated for 10 mins by europium-labeled antiphosphotyrosine/enhancement solution based assay
RAW264.7 [9] = test: Anti-inflammatory against LPS induced mouse RAW 264.7 cells assessed as inhibition of IL-1beta measured for 24 hrs by ELISA analysis; type: functional, cell-based; conditions: RAW264.7, 24 h
RAW264.7 [10] = test: Anti-inflammatory against LPS induced mouse RAW 264.7 cells assessed as inhibition of NO measured for 24 hrs by ELISA analysis; type: functional, cell-based; conditions: RAW264.7, 24 h
RAW264.7 [11] = test: Anti-inflammatory against LPS induced mouse RAW 264.7 cells assessed as inhibition of IL-6 measured for 24 hrs by ELISA analysis; type: functional, cell-based; conditions: RAW264.7, 24 h
Rattus norvegicus [12] = test: Anti-inflammatory activity against Carrageenan-induced paw edema in Wistar rat at 5 mg/kg, po pretreated for 30 mins followed by carrageenan addition after 4 hrs by Plethysmometric analysis relative to control; type: functional; conditions: time 4.5 hrs
Rattus norvegicus [13] = test: Anti-inflammatory activity against carrageenan-induced paw edema in Albino rat assessed as percentage of protection at 50 mg/kg,po pretreated for 1 hrs followed by carrageenan addition measured after 4 hrs by plethysmography method relative to control; type: functional; conditions: time 5 hrs
Rattus norvegicus [14] = test: Anti-inflammatory activity against carrageenan-induced paw edema in po dosed Wistar rat pretreated for 1 hrs followed by carrageenan addition measured after 3 hrs; type: functional; conditions: time 4 hrs
Rattus norvegicus [15] = test: Anti-inflammatory activity against formalin-induced foot paw edema in Wistar rat assessed as oedema inhibition at 10 mg/kg,po measured after 6 hrs by plethysmometric analysis relative to control; type: functional
Rattus norvegicus [16] = test: Anti-inflammatory activity against formalin-induced foot paw edema in Wistar rat assessed as oedema inhibition at 10 mg/kg,po measured after 1 hrs by plethysmometric analysis relative to control; type: functional
Rattus norvegicus [17] = test: Anti-inflammatory activity against formalin-induced foot paw edema in Wistar rat assessed as oedema inhibition at 10 mg/kg,po measured after 3 hrs by plethysmometric analysis relative to control; type: functional
Rattus norvegicus [18] = test: Anti-inflammatory activity against carrageenan-induced paw edema in Wistar rat at 20 mg/kg, po assessed as paw edema volume measured after 4 hrs by plethysmometric analysis relative to control; type: functional
RAW264.7 [19] = test: Anti-inflammatory activity against LPS induced mouse RAW264.7 cells assessed as suppression of TNFalpha cytokine level at 20 uM incubated for 24 hrs by ELISA assay relative to control; type: functional
Rattus norvegicus [20] = test: Anti-inflammatory activity against carrageenan-induced hind paw edema in rat at 20 mg/kg, PO measured after 5 hrs relative to control; type: functional
Rattus norvegicus [21] = test: Anti-inflammatory activity against carrageenan-induced paw edema in PO dosed Wistar albino rat assessed as edema inhibition percentage measured for 2 hrs relative to control; type: functional
Rattus norvegicus [22] = test: Anti-inflammatory activity against carrageenan-induced paw edema in PO dosed Wistar albino rat measured after 2 hrs; type: functional
Rattus norvegicus [23] = test: Anti-inflammatory activity against carrageenan-induced paw oedema in 12 hrs fasted Albino rat assessed as inhibition of oedema formation administered intraperitoneally measured after 3 hrs relative to control; type: functional; conditions: route ip
[24] = Ulcerogenic activity in 12 hrs fasted Albino rat assessed as ulcerogenic index at […] per day, po for 3 days; type: toxicity, organism-based; conditions: in vivo, 72 h, time 3 day

Sequence of Epidermal growth factor receptor (P00533 whole entry): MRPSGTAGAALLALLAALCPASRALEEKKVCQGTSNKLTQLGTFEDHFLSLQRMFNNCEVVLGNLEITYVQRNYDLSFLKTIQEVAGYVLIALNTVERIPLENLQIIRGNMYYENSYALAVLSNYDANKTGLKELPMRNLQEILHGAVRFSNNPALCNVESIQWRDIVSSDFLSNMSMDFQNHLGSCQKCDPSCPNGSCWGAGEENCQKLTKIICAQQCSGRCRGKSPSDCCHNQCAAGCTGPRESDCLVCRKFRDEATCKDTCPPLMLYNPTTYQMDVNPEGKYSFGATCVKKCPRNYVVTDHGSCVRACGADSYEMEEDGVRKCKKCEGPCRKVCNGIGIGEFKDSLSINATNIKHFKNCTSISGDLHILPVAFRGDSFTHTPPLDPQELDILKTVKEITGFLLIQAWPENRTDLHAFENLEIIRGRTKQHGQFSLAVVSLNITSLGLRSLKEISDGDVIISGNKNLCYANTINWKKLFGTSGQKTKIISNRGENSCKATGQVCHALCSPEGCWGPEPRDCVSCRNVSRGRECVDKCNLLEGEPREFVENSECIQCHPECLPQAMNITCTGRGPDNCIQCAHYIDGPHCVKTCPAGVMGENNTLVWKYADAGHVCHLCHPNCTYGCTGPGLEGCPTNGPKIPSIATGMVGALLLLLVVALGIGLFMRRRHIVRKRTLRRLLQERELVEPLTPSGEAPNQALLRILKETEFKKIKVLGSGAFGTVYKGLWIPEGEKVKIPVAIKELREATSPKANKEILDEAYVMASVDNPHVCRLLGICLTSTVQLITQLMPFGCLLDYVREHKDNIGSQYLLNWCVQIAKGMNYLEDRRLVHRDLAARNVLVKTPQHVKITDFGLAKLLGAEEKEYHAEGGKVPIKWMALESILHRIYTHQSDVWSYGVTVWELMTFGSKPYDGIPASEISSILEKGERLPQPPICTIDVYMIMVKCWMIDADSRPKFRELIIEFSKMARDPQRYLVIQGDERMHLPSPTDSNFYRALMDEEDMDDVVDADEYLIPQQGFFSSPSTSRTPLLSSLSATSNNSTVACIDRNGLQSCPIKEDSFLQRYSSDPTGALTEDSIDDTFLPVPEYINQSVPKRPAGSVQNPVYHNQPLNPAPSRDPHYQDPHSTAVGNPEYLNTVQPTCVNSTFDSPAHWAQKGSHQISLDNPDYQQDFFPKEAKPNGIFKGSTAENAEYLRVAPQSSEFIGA

`Nc1cc(-c2ccccc2)nn1C(=O)c1csc(-c2ccccc2)n1` gave an Activity (Rattus norvegicus [1]) of 0.44.

`COc1ccc(C2CC(c3ccc(F)cc3O)=NN2)cc1` (stereo not drawn) gave an Activity (Mus musculus [2]) of 54%.

For `Clc1cc(Cl)c2cccc(-c3nc4ccccc4o3)c2n1`, the inhibition at 100 µg/mL (Erythrocyte) was 80.2% and the inhibition (Homo sapiens) was 85.3%.

Compound `O=C(CCN1CCN(c2cccc(Cl)c2Cl)CC1)Nc1ccc2oc(Cc3ccc(Cl)cc3)nc2c1` has an Activity (Rattus norvegicus [3]) of 39.3% and an Activity (Rattus norvegicus [4]) of 77.6%.

In the case of `O=C(CCc1nnc(-c2ccc(O)cc2)o1)N/N=C1\C(=O)Nc2ccccc21`, the Activity (Mus musculus [5]) is reported as 84.11%.

Work on `COc1cc(Cc2nc3cc(NC(=O)c4ccc(Cl)cc4)ccc3o2)cc(OC)c1OC` yielded an inhibition in vivo at 20 mg/kg (Rattus norvegicus [6]) of 79.5%.

With `Cc1ccc(/C=N/NC(=O)CNc2nc(-c3ccccc3)c(-c3ccccc3)s2)cc1` the IC50 [7] was 1700 nM and the IC50 [8] was 200 nM.

`CN(C)c1cccc2c(S(=O)(=O)Oc3cccc4oc(=O)[nH]c34)cccc12` showed an IC50 (RAW264.7 [9]) of 20.1 µM, an IC50 (RAW264.7 [10]) of 17.7 µM and an IC50 (RAW264.7 [11]) of 8.61 µM.

Compound `COc1ccc(-c2cc(-c3ccccc3)nn2CC(=O)Nc2ccc(S(N)(=O)=O)cc2)cc1` has an inhibition in vivo at 5 mg/kg (Rattus norvegicus [12]) of 81%.

In the case of `O=C(CCN1CCN(c2ccc([N+](=O)[O-])cc2)CC1)Nc1ccc2oc(Cc3ccc(Cl)cc3)nc2c1`, the Activity (Rattus norvegicus [3]) is reported as 44% and the Activity (Rattus norvegicus [4]) is reported as 81.7%.

`CCc1nnc(-c2cc3cc([N+](=O)[O-])ccc3o2)o1` showed an Activity (Rattus norvegicus [13]) of 72%.

With `CCOC(=O)c1cc(N)n(C(=O)c2csc(-c3ccccc3)n2)n1` the Activity (Rattus norvegicus [1]) was 0.44.

Compound `O=C(O)CC(O)(c1ccccc1)c1ccccc1` has an ED50 (Rattus norvegicus [14]) of 15 µmol/kg.

Compound `C/C(=N/Nc1ccc(C(=O)O)cc1)c1cccc(N2C(=O)c3ccccc3C2=O)c1` has an inhibition in vivo at 10 mg/kg (Rattus norvegicus [15]) of 29.2%, an inhibition in vivo at 10 mg/kg (Rattus norvegicus [16]) of 29.2% and an inhibition in vivo at 10 mg/kg (Rattus norvegicus [17]) of 22.2%.

Compound `CN(C)CCC(=O)Nc1ccc2oc(Cc3ccc(Cl)cc3)nc2c1` has an Activity (Rattus norvegicus [3]) of 48.4% and an Activity (Rattus norvegicus [4]) of 72%.

With `COc1ccc2c(c1)c(CC(=O)O)c(C)n2C(=O)c1ccc(Cl)cc1` [INDOMETHACIN] the inhibition in vivo at 20 mg/kg (Rattus norvegicus [18]) was 81.9%, the Activity (RAW264.7 [19]) was 68.84% and the Activity (Mus musculus [5]) was 85.84%. The inhibition in vivo at 20 mg/kg (Rattus norvegicus [20]) was 81%.

Compound `COc1ccc(/C=C/C(=O)c2ccc(F)cc2O)cc1` has an Activity (Mus musculus [2]) of 54%.

With `CC1=NN(c2ccccc2C(=O)O)C(=O)/C1=N/Nc1ccc(S(N)(=O)=O)cc1` the “inhibition (INH)” value (Rattus norvegicus [21]) was 54.54% and the ED50 (Rattus norvegicus [22]) was 44 µmol/kg.

For `Cc1ccc(S(=O)(=O)N2CC(O)CC2C(=O)Nc2nc3ccccc3s2)cc1` (stereo not drawn), the “inhibition (INH)” value (Rattus norvegicus [23]) was 78% and the Activity_index [24] was 0.89.
